How the values were obtained:
[1] = system: MDS patients; details: cited from earlier work
[2] = system: HepG2 cells; test: Epo elaboration by HepG2 cells (ELISA); format: cell-based, human
Method: HepG2 cells, acquired from American Type Culture Collection (ATCC, Manassas, Va.), were grown in EMEM supplemented with 10% FBS and 1% penicillin/streptomycin solution. Cells were maintained at 37° C. under 5% CO2.
(§1) Quantitation of human S100A9/MRP14 in patient serum and supernatant of the HepG2 cell line was performed using CircuLex S100A9/MRP14 ELISA Kit (MBL, Nagano, Japan). Quantitative measurement of human TNFα and IL-1β from serum patients and supernatant of HepG2 cell line were performed using Human IL-1β ELISA Kit and Human TNFα ELISA Kit (Life Technologies, Carlsbad, Calif., USA). Quantitation of human Epo in patient serum and HepG2 cell line supernatant was performed using Human Erythropoietin ELISA kit (Stemcell Technologies, Vancouver, BC, Canada). All samples were performed in duplicate.

[3] = system: non-del(5q) MDS patients; test: Erythroid response to ESA or lenalidomide treatment by serum TNFα / S100A9 concentration; format: in vivo, human
Description: (§2) Serum samples used for ELISA analysis were collected from 4 centers (Taussig Cancer Institute in Cleveland; AOU Careggi, University of Firenze; Saint Louis hospital in Paris; H. Lee Moffitt Cancer Center in Tampa). Peripheral blood mononuclear cells (PBMC) were collected from patients seen at Moffitt Cancer Center All patients were consented on Institutional Review Boards, or equivalent, approved protocols in hematology clinics at each center, and from the Eastern Cooperative Oncology Group (ECOG) E2905 trial (NCT00843882). All routine clinical and biological data were available.
Data are expressed as mean±standard error for continuous variables, or percentage of total for non-continuous variables. Spearman's correlation, Mann-Withney and Jonckheere-Terpstra tests were used for analysis of continuous variables. Chi-square test was used for analysis of non-continuous variables. Differences between the results of comparative tests were considered significant if the two-sided p-value was less than 0.05. All statistical analyses were performed using SPSS v.22 software (IBM SPSS Statistics).

[4] = system: HepG2 cells; test: IL10 mRNA qPCR in HepG2 cells; format: cell-based, human
Method: RNA was isolated using the RNAeasy Mini Kit (Qiagen, Valencia, Calif., USA) followed by iScript cDNA synthesis (Bio-Rad, Hercules, Calif., USA) and amplification using iQ SYBR Green Supermix (Bio-Rad, Herculed, Calif., USA). The relative level of gene expression for each experimental sample was calculated by the ΔΔCt method. Untreated cells were the experimental control and the housekeeping gene GAPDH was the endogenous control.

[5] = system: PBMC isolated from non-del(5q) MDS patients; test: S100A9 production by PBMC from MDS patients (ELISA); format: cell-based, human; details: PBMC from MDS patients (n=7), 1 μM lenalidomide, 24 hours
Method: as §1, §2

[6] = system: NF-κB; test: Cytoplasmic and nuclear NF-κB western blotting in HepG2 cells; format: cell-based, human; details: HepG2, 24 h, 1 μM lenalidomide pre-incubation, then S100A9 or TNFα
Method: After treatment for 24 h, cells were harvested and lysed in 1×RIPA buffer supplemented with protease and phosphatase inhibitors for classical western blotting. For the nuclear extraction, cells were lysed in ice with buffer A, then pelleted. After removed supernatant (cytoplasmic fraction), pellets were lysed in ice with buffer B and pelleted (nuclear fraction) (Nuclear extraction kit, Abcam, Cambridge, USA). Lysates were pelleted and 50 μg of protein was resolved by SDS-PAGE and transferred to PVDF membranes. The membranes were blocked for 30 min in 5% non-fat dry milk solution in PBST (PBS with 0.1% Tween 20) and incubated with the indicated antibodies. Membranes were developed using ECL according to the manufacturer's protocol (GE Healthcare, Little Chalfont, UK). Densitometry analysis was performed using Image J Software.

[7] = system: MDS PBMC; test: LPS-induced TNFα production by MDS PBMC; format: cell-based, human; details: MDS PBMC (n=7), 1 μM lenalidomide 30 minutes prior to LPS (1 μg/ml), 24 h
[8] = system: U937 cells; test: a-caspase-1/NLRP3 confocal microscopy (inflammasome formation) in U937 cells; format: cell-based; details: U937, 5 μg/mL rhS100A9, 24 hours
[9] = system: BM cells isolated from WT mice; test: a-caspase-1/NLRP3 confocal microscopy in WT mouse BM cells treated with rhS100A9; format: cell-based; details: 5 μg/mL rhS100A9, 24 hours
Method: (§3) MDS and normal donor BM-MNC and mouse BM cells were stained with 30×FAM-FLICA® Caspase-1 solution at a ratio of 1:30 for 2 hours at 37° C. Cells were washed and cytospins were generated using a 5 minutes centrifugation at 450 rpm. Slides were fixed at 37° C. for 10 minutes using BD Cytofix Fixation Buffer (BD Biosciences), and subsequently washed using PBS. Cells were permeabilized with 0.1% Triton X-100/2% BSA in PBS for 15 minutes at room temperature. After washing with PBS, cells were blocked using 2% BSA in PBS for 30 minutes at room temperature, and washed again. Cells were incubated with the appropriate primary antibody overnight (1:400 for NLRP3, 1:20 for β-catenin) at 4° C. The next day, cells were washed with PBS and incubated with the appropriate secondary antibodies (1:500) for 1 hour at room temperature. After washing, cells were covered with ProLong Gold Antifade Reagent with DAPI prior to the addition of a coverslip (Life Technologies). Co-localization of a-caspase-1 with NLRP3 inflammasome complexes was assessed using a Leica TCS SP5 AOBS Laser Scanning Confocal microscope (Leica Microsystems). Analysis of the inflammasome images was performed with Definiens Developer 2.0 (Definiens AG). The software was used to segment cells based on brightness and size thresholds, followed by a watershed segmentation algorithm. Intensity values and Pearson's correlation coefficient were extracted from the segmented cells. For β-catenin image analysis, confocal images were imported into Definiens Tissue Studio v3.0, 64 Dual in .tif format. Cells were separated from background using the RGB thresholds. Nuclei were identified by setting thresholds in the DAPI channel. Typical cells averaged 60 microns. The red intensity (β-catenin) in the nucleus and cytoplasm was established by setting thresholds to low, medium and high in the red channel on a scale of 0-255 in the red channel.

[10] = system: U937 cells; test: Pyroptosis / active caspase-1 flow cytometry in U937 cells treated with rhS100A9; format: cell-based
Method: Monocytic U937 cells were treated with the indicated concentrations of rhS100A9 for 24 hours, or with 5 μg/mL rhS100A9 for the indicated time points. Subsequently, cells were stained with 30×FAM-FLICA® Caspase-1 solution at a ratio of 1:30 for 2 hours at 37° C. Cells were washed, resuspended in 1× binding buffer, and stained with Annexin-V:PE at a dilution of 1:30 for 15 minutes at room temperature. 1× binding buffer was added to a final volume of 350 μL. Sample acquisitions were carried out using a BD FACSCalibur flow cytometer (BD Biosciences). Data were analyzed using FlowJo 9.7.5 software.

[11] = system: U937 cells; test: Nuclear β-catenin confocal microscopy in U937 cells; format: cell-based; details: U937, 5 μg/mL rhS100A9, 24 hours, compared to untreated cells
[12] = system: normal BM-MNC; test: qPCR of pyroptosis-associated genes in normal BM-MNC treated with rhS100A9; format: cell-based, human; details: normal BM-MNC (n=2), 1 μg/mL rhS100A9, 24 hours
Method: RNA was isolated from BM-MNC using the RNeasy Mini Kit (Qiagen). cDNA was produced using the iScript cDNA Synthesis Kit (Bio-Rad). Sequences for primers can be found in Table 1. GAPDH mRNA was used for transcript normalization. cDNA was amplified using the iQ SYBR Green Supermix and the CFX96 Real-Time PCR Detection System (Bio-Rad). PCR conditions were as follows: 10 minutes at 95° C., followed by 40 cycles of amplification (15 seconds at 95° C. and 1 minute at 60° C.). Relative gene expression was calculated using the […] method.

[13] = system: normal BM-MNC; test: a-caspase-1/NLRP3 confocal microscopy in normal BM-MNC treated with rhS100A9; format: cell-based, human; details: 5 μg/mL rhS100A9, 24 hours
Method: as §3

[14] = system: U937 cells; test: Pore formation assay (ethidium bromide uptake) in U937 cells; format: cell-based; details: U937, 12.5 μg/mL EB, 5 μg/mL rhS100A9
[15] = system: normal BM-MNC; test: Nuclear β-catenin confocal microscopy in normal BM-MNC; format: cell-based, human; details: normal BM-MNC, 5 μg/mL rhS100A9, 24 hours, compared to controls
Method: as §3, with “Intensity values and Pearson's correlation coefficient were extracted from the segmented cells. For β-catenin image analysis, confocal images were imported into Definiens Tissue Studio v3.0, 64 Dual in .tif format. Cells were separated from background using the RGB thresholds. Nuclei were identified by setting thresholds in the DAPI channel. Typical cells averaged 60 microns. The red intensity (β-catenin) in the nucleus and cytoplasm was established by setting thresholds to low, medium and high in the red channel on a scale of 0-255 in the red channel.” left out

[16] = system: U937 cells; test: Comet assay (DNA damage) in U937 cells; format: cell-based; details: U937, 5 μg/mL rhS100A9, 24 hours, compared to untreated cells
Method: Monocytic U937 cells were treated with 5 μg/mL rhS100A9 for 24 hr. DNA damage was measured by single cell gel electrophoresis using alkaline CometAssay® according to manufacturer's protocol (Trevigen Inc.).

[17] = system: U937 cells; test: ROS detection by flow cytometry in U937 cells; format: cell-based; details: U937, 5 μg/mL rhS100A9, 24 hours, compared to untreated cells
Description: ROS were detected using CM-H2DCFDA and Cell ROX® Deep Red Reagent according to manufacturer's protocol (Life Technologies).

[18] = lenalidomide or lenalidomide + Epo
[19] = U937, increasing concentrations of rhS100A9, 24 hours

Nc1cccc2c1CN(C1CCC(=O)NC1=O)C2=O (stereo not drawn) [lenalidomide, Lenalidomide]
response in patients with an interstitial deletion of Chromosome 5q ([1]; MDS patients with del 5q): high rate of response
patients without 5q deletions who benefit from therapy ([1]; MDS patients without 5q deletions): Approximately 25%
effect on IL-1β-directed suppression of Epo elaboration ([2]; HepG2, 1 μM lenalidomide 30 minutes prior to IL-1β (10 ng/ml)): no effect
suppression of Epo production by S100A9 after lenalidomide pre-incubation ([2]; HepG2, 1 μM lenalidomide 30 minutes prior to S100A9 (1 μg/ml)): 65%
suppression of Epo elaboration by TNFα after lenalidomide pre-incubation ([2]; HepG2, 1 μM lenalidomide 30 minutes prior to TNFα (10 ng/ml)): 0%
erythroid response rate, high (above the median) serum TNFα [3, 18]: 14%
erythroid response rate, low (below the median) serum TNFα [3, 18]: 64%
erythroid response rate, high TNFα and low S100A9 ([3]; lenalidomide treatment): 12%
erythroid response rate, low TNFα and high S100A9 concentrations ([3]; lenalidomide treatment): 62%
IL10 gene message following IL-1β treatment ([4]; HepG2, 1 μM lenalidomide pre-incubation): no modulatory effect
IL10 mRNA expression compared to S100A9 or TNFα treatment alone ([4]; HepG2, 24 h, 1 μM lenalidomide 30 minutes prior to S100A9 (1 μg/ml) or TNFα (10 ng/ml)): significantly increased
S100A9 elaboration [5]: significant reduction
NF-κB in nuclear fractions [6]: significant reduction
TNFα production induced by LPS [7]: significantly reduced

rhS100A9: Recombinant human S100A9, DAMP/alarmin protein, ligand for CD33 and TLR4, generated as previously described
levels of NLRP3 inflammasome complexes [8]: markedly increased
reduction in Epo elaboration ([2]; HepG2, 1 μg/ml, 24 h exposure): 95%
Epo elaboration ([2]; HepG2, 10 to 20 μg/ml, 24 h exposure): completely suppressed
suppression of Epo production by the inflammatory protein alone ([2]; HepG2, vehicle control arm of lenalidomide experiment, S100A9 1 μg/ml or TNFα 10 ng/ml): 95%
inflammasome complexes [9]: marked induction
MFI of NLRP3 ([9]; versus controls): significantly increased
MFI of a-caspase-1 ([9]; versus controls): significantly increased
activation of caspase-1 ([10]; U937, 5 μg/mL rhS100A9 over time): time-dependent increase
a-caspase-1 MFI and percentage of a-caspase-1+ cells [10, 19]: corresponding increase
fraction of pyroptotic cells [10, 19]: concentration-dependent increase
levels of nuclear (activated) β-catenin [11]: marked increases
expression of pyroptosis-associated genes [12]: significantly up-regulated
NLRP3 levels induced [13]: 47.1 fold
a-caspase-1 levels induced [13]: 2.5 fold
formation of NLRP3 inflammasomes [13]: 2.9 fold
uptake of ethidium bromide [14]: rapid and substantial uptake
levels of nuclear β-catenin [15]: elevated levels
increase in DNA damage [16]: 4.1 fold
increase in mean percentage of ROS-positive cells [17]: 2.9 fold

From patent publication US10697970B2, “S100A9 levels for predicting lenalidomide and erythropoietin responsiveness” (H. LEE MOFFITT CANCER CENTER AND RESEARCH INSTITUTE, INC., priority 2015, dated 2020)
